# Experimental data reported in patent US10184115B2, “Mutated cellobiose dehydrogenase with increased substrate specificity” (DIRECTSENS GMBH, priority 2012, dated 2019).
# How the values were obtained:
# Format in all cases: biochemical
# [1] = molecular target: Myriococcum thermophilum cellobiose dehydrogenase (CDH, SEQ ID NO: 1) variant C312Y/W316L (Thermothelomyces myriococcoides, UniProt A9XK88, C312Y/W316L); details: apparent, DCIP assay, pH 4.5, 30° C.; for kcat: ~ values only estimated by non linear regression
# Experimental: (§1) Enzyme activity was assayed at 30° C. using either the DCIP (Karapetyan et al., 2005 Journal of Biotechnology 121: 34-48) or cytochrome c (Canevascini et al., 1991, European Journal of Biochemistry 198: 43-52) as electron acceptor. […] Stock solutions of carbohydrates used for kinetic measurements were prepared in the respective buffer and allowed to stand overnight for mutarotation, while stock solutions of electron acceptors were prepared in water and immediately used. The reaction stoichiometry is 1 for the two-electron acceptor DCIP (1 mole of DCIP reduced per mole of carbohydrate oxidized), but 2 for the one-electron acceptor cytochrome c. Kinetic constants were calculated by fitting the observed data to the Henri-Michaelis-Menten equation or to the adapted model for substrate inhibition using nonlinear least-squares regression and the program SigmaPlot (Systat Software, San Jose, Calif., USA).
# (§2) The M. thermophilum CDH gene (EF492051, SEQ ID NO: 2) was codon-optimized for expression in Pichia pastoris according to the method described in Abad et al., 2010 and WO2010/097462 A1 (SEQ ID NO: 13) and synthesized by Gen-script (Piscataway, N.J., USA). cDNA encoding for M. thermophilum CDH was excised from the plasmid pMTSopt using EcoRI and NotI and cloned into the expression vector pPicZA along with its native signal sequence. Plasmid pCT1 was used as template for the amplification of the C. thermophilus CDH cDNA. Restriction enzymes BstBI and XbaI were used for cloning into the expression vector pPicZB along with its native signal sequence. Mutants of M. thermophilum CDH: C312Y, N313S, W316L, W316R, R622N, N721D, C312Y/W316L, C312Y/W316R and C. thermophiles CDH C310Y were prepared by a two step mutagenesis approach using PCR and DpnI (Li et al., 2002). […] SacI linearized expression plasmids were transformed into electrocompetent X-33 cells and transformants were selected on YPD Zeocin plates ([…]).
# (§3) Recombinant wild-type CDH as well as variants were produced in 1 L baffled flasks. Precultures were grown overnight in 30 mL of YPD medium at 30° C. and 120 rpm. After approximately 18 hours the precultures were transferred into 1 L baffled flasks containing 200 mL BMGY medium without methanol. Induction with methanol was started immediately using a multichannel peristaltic pump (Minipuls Evolution, Gilson, Middleton, Wis., USA). Each flask was supplied eight times a day with methanol yielding a total concentration of 2% (v/v) methanol per day. Increase in activity was monitored using the DCIP and the cytochrome c enzyme assays. Cultivation was stopped at day five of methanol induction, cells removed by centrifugation (4000 rpm, 20 min) and the supernatant set to a final ammonium sulfate concentration of 20%.
# (§4) The sample was loaded on a 20 mL PHE Sepharose FF column (HR26/20) equilibrated with 50 mM Na-acetate buffer pH 5.5 containing 20% ammonium sulfate. Proteins were eluted by increasing the concentration of the elution buffer (50 mM Na-acetate buffer pH 5.5) from 0 to 100% in 5 column volumes and fractions containing CDH activity were pooled. After diafiltration with a polyethersulfone flat-stack cross flow module with a cut-off of 10 kDa (Viva Flow 50, Sartorius, Göttingen, Germany) until conductivity of 5 mS cm^−1 in 20 mM Na-acetate pH 5.5 the samples were loaded on a 20 mL Q-Source column (HR26/20) equilibrated with a 20 mM Na-acetate buffer pH 5.5. CDH was eluted by increasing the concentration of the elution buffer (50 mM Na-acetate buffer pH 5.5 containing 0.5 M NaCl) from 0 to 100% in 50 column volumes. Fractions were tested for CDH activity and pooled according to the highest Reinheitszahl (RZ, calculated from the absorbance ratio 420 nm/280 nm). Purified enzymes were concentrated and diafiltered in 50 mM citrate buffer, pH 5.5, aliquoted and kept at 4° C. for further use.
# [2] = molecular target: Myriococcum thermophilum cellobiose dehydrogenase (CDH, SEQ ID NO: 1) variant C312Y (Thermothelomyces myriococcoides, UniProt A9XK88, C312Y); details: apparent, DCIP assay, pH 4.5, 30° C.
# Experimental: as §1, §2, §3, §4
# [3] = molecular target: Myriococcum thermophilum cellobiose dehydrogenase (CDH, SEQ ID NO: 1) variant C312Y/W316R (Thermothelomyces myriococcoides, UniProt A9XK88, C312Y/W316R); details: apparent, DCIP assay, pH 4.5, 30° C.; for kcat: ~ values only estimated by non linear regression
# Experimental: as §1, §2, §3, §4
# [4] = molecular target: T1, Corynascus thermophilus CDH flavodehydrogenase domain, recombinant wild type (wtDH), amino acids 249-787 of SEQ ID NO: 7 (Thermothelomyces fergusii, UniProt E7D6B9); experiment: Steady-state kinetics, DCIP assay: C. thermophilus flavodehydrogenase domain wt; details: apparent, pH 5.5, 30° C.
# T1 sequence (E7D6B9 249-787): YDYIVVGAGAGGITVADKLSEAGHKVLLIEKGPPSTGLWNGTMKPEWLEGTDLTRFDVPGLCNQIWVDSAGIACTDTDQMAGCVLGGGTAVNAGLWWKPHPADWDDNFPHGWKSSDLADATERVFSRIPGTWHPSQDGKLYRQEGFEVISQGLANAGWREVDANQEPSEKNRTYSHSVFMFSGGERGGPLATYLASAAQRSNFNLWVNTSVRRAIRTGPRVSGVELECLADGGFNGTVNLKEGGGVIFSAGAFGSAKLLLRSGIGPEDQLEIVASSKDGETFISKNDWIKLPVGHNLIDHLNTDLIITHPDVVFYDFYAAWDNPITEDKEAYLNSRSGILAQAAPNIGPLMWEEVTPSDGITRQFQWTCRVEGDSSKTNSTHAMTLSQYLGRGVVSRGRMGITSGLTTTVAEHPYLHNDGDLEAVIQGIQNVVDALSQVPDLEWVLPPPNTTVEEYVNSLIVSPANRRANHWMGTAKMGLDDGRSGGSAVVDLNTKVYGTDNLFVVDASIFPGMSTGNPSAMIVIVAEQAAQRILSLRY
# Experimental: as §1
# The construct was confirmed by sequencing.
# as §3
# as §4, with “Purified enzymes were concentrated and diafiltered in 50 mM citrate buffer, pH 5.5, aliquoted and kept at 4° C. for further use.” left out
# Chain of Myriococcum thermophilum cellobiose dehydrogenase (CDH, SEQ ID NO: 1) variant C312Y/W316L (A9XK88 entry or part of it C312Y/W316L): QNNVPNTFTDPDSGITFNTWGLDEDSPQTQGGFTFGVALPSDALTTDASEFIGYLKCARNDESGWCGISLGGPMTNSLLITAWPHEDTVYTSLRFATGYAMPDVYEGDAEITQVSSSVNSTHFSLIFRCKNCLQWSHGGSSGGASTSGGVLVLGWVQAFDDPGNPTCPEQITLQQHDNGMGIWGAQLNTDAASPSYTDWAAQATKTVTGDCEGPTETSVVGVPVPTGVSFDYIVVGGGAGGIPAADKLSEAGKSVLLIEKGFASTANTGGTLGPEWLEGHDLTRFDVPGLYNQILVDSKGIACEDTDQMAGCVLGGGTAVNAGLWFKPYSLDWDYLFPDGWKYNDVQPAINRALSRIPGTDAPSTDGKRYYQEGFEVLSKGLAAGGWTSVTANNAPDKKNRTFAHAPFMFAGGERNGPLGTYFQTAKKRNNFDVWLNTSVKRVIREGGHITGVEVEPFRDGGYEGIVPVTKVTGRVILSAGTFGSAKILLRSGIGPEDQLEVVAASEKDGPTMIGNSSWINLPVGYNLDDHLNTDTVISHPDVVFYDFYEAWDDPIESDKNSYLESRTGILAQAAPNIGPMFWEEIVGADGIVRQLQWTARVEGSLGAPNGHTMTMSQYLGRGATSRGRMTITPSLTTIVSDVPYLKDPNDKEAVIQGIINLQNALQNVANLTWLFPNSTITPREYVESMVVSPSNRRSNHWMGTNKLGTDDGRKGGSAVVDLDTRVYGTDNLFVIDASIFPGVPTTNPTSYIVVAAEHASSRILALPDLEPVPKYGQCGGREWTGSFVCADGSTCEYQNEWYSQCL
# Chain of Myriococcum thermophilum cellobiose dehydrogenase (CDH, SEQ ID NO: 1) variant C312Y/W316R (A9XK88 entry or part of it C312Y/W316R): as the sequence (A9XK88 entry or part of it C312Y/W316L) above, with L295R counted along it
# Chain of Myriococcum thermophilum cellobiose dehydrogenase (CDH, SEQ ID NO: 1) variant C312Y (A9XK88 entry or part of it C312Y): as the sequence (A9XK88 entry or part of it C312Y/W316L) above, with L295W counted along it
Compound,kcat/KM [1] [M⁻¹ s⁻¹],kcat [1] [s⁻¹],kcat [2] [s⁻¹],kcat/KM [2] [M⁻¹ s⁻¹],kcat/KM [3] [M⁻¹ s⁻¹],kcat [3] [s⁻¹],kcat [4] [s⁻¹],kcat/KM [4] [M⁻¹ s⁻¹]
"OC[C@H]1OC(O)[C@H](O)[C@@H](O)[C@@H]1O (stereo partly shown) [Glucose, glucose]",13,6.4,9.6,50,6.2,4.3,8.8,79.1
"OC[C@H]1O[C@H](O[C@H]2[C@H](O)[C@@H](O)C(O)O[C@@H]2CO)[C@H](O)[C@@H](O)[C@@H]1O (stereo partly shown) [Maltose, maltose]",0.62,~0.92,0.48,3.5,0.17,~2.7,0.86,296
